Results from patent US20100261658A1, “PEPTIDE FOR ACTIVATING AQUAPORIN SYNTHESIS” (priority 2007, published 2010).
Peptide text beside a SMILES is read from it.

Tested on: aquaporin 3
Test: Expression of aquaporin 3 by immunofluorescence in samples of skin ex vivo
Type: cell-based, human
Details: 1% solution of a mother solution at 50 ppm applied topically, 24 hours or 48 hours; in particular upper layers of the epidermis; vs non-treated control
Experimental: The aim of this study is to determine the influence of the peptide SEQ ID no 5 on the expression of aquaporin 3 in samples of skin ex vivo.
Protocol: Samples of human skin are cultured at the air/liquid interface. A 1% solution of a mother solution at 50 ppm of peptide SEQ ID no 4 is applied topically, then the samples are incubated for 24 hours or 48 hours.
These skin samples are then fixed with formaldehyde then enclosed in paraffin. Sections of 2 to 3 μm are then realized. The immunolabeling is carried out after different stages of washing and incubation of these sections. The immunolabeling is carried out by means of a specific polyclonal antibody of aquaporin 3 (anti-aquaporin 3 (C-18): goat polyclonal, sc-9885, Santa Cruz, dilution 1/100th), then a secondary antibody, coupled to a fluorescent marker (alexa-fluor 488 donkey anti-goat Ig G, Molecular Probes, dilution 1/1000th). The skin sections are then examined by epifluorescence microscope (Nikon Eclipse E600 microscope).

## C[C@H](NC(=O)[C@@H]1CCCN1C(=O)[C@@H](N)CC(N)=O)C(=O)N[C@@H](CCCNC(=N)N)C(=O)O [SEQ ID no 4, Asn-Pro-Ala-Arg] (H-NPAR-OH; N-terminus and C-terminus assumed)
  aquaporin 3 immunofluorescence: stronger fluorescence
